{"source": "paper PMC9821843", "about": "“Powerful Potential of Polyfluoroalkyl-Containing 4-Arylhydrazinylidenepyrazol-3-ones for Pharmaceuticals” (Molecules, 2022)", "key": {"[1]": {"biological_target": "porcine liver carboxylesterase (CES, EC 3.1.1.1) (Sus scrofa, UniProt Q29550)", "sequence (Q29550 19-566)": "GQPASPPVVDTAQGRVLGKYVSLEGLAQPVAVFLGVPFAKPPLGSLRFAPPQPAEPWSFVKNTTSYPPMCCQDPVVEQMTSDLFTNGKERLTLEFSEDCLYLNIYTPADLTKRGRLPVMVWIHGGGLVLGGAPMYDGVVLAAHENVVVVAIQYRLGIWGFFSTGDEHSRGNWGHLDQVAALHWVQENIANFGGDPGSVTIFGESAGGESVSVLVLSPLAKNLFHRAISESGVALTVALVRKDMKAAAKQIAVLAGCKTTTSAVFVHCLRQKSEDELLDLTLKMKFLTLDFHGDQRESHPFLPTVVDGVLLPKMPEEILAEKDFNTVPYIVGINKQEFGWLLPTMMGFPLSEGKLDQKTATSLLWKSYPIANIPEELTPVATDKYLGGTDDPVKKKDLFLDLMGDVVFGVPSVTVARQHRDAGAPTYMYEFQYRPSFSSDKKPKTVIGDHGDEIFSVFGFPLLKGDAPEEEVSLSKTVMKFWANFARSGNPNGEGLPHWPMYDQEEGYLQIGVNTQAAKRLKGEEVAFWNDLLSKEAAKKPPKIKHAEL", "experiment": "Porcine liver CES inhibition kinetics (Lineweaver-Burk)", "format": "biochemical", "conditions": "mixed type inhibition; mean ± SEM", "experimental": "To elucidate the inhibition mechanisms for active compounds, porcine liver CES residual activities were determined in the presence of 3 increasing concentrations of a test compound and 5–6 decreasing concentrations of the substrates. Test compounds were incubated with the enzymes at 25 °C for 5 min, followed by the addition of substrates. A parallel control was made for an assay of the rate of hydrolysis of the same concentrations of substrates in solutions with no inhibitor. Linear regression of 1/V versus 1/[S] double-reciprocal (Lineweaver-Burk) plots was used to determine the inhibition constants for the competitive component (Ki) and noncompetitive component (αKi).\nMeasurements were performed in a Bio-Rad Benchmark Plus microplate reader. Each experiment was performed in triplicate. Plots, linear regressions and values of IC50, were determined using Origin 6.1 for Windows, OriginLab (Northampton, MA, USA). Results were calculated using GraphPad Prism version 6.05 for Windows, GraphPad Software (La Jolla, CA, USA) and presented as mean ± SEM."}, "[2]": {"experiment": "Ferric reducing antioxidant power (FRAP) assay", "conditions": "20 μM; n.a. = inactive", "text": "The FRAP assay measures the ability of anti-oxidants to reduce the ferric 2,4,6-tripyridyl-s-triazine complex [Fe(TPTZ)2]^3+ to the intensely blue ferrous colored complex [Fe(TPTZ)2]^2+ with an absorption maximum at λ = 593 nm. The reducing ability of a compound is an indicator of its potential anti-oxidant activity. 2,4,6-Tris(pyridin-2-yl)-1,3,5-triazine (TPTZ), FeCl3·6H2O, Trolox and DMSO were obtained from Sigma-Aldrich Chemical Co (St. Louis, MO, USA).\nThe ferric reducing ability of the compounds was determined by the method in microplate adapted version described in [116]. The FRAP reagent was prepared by mixing acetate buffer (0.3 M, pH 3.6), TPTZ (10 mM in 40 mM HCl) and FeCl3·6H2O (20 mM in distilled water) in a ratio of 10:1:1 immediately before use. Compounds were dissolved in DMSO and tested in the concentration 20 μM. The solvent content in the reaction mixture was 4% (v/v). The test compounds (10 μL of 0.5 mM solution) were added to the FRAP reagent solution (240 μL) and mixed thoroughly. The reaction was carried out at 37 °C in the dark; the incubation time was 1 h. The absorbance at 600 nm was monitored spectrophotometrically by a FLUOStar OPTIMA microplate reader (BMG Labtech, Ortenberg, Germany) at 37 °C. Trolox was used as a reference compound. Values were obtained from four replicates of each sample in three independent experiments.\nThe ferric reducing ability of compounds was expressed as TE units (antioxidant activity in Trolox equivalent), the values calculated as the ratio of the concentrations of Trolox and the test compound resulting in the same effect. The calculations were carried out using Origin 6.1 for Windows. Results were presented as mean ± SEM, calculated using GraphPad Prism version 6.05 for Windows, GraphPad Software."}, "[3]": {"tested_on": "Microsporum canis RCPF F 1643/1585", "experiment": "Antifungal susceptibility testing, M. canis", "conditions": "for MIC: Microsporum canis, RCPFF1643/1585, read-out: MIC for fungi strains inhibition, M. canis", "source_text": "The solvent was DMSO. […] In each test, a growth control and a sterility control were used."}, "Vero cells": {"tested_on": "Vero cells", "experiment": "Live cell visualization (fluorescent staining, confocal microscopy)", "format": "cell-based, African green monkey", "conditions": "1 × 10^–4 M, laser excitation", "text": "Tartrazine, having 4-(4-sulfonatophenylazo)-5-pyrazolone moiety, is widely used as a synthetic lemon-yellow azo dye for food coloring. Many reports about the pyrazolone-based dyes for different purposes have been published to date. However, there are no reports describing 4-AHPs’ use for the biovisualization of living cells. In this work, we studied the potential of compounds 5f, 6a, 9a for the fluorescent visualization of the Vero cell structure (African green monkey kidney epithelium). Cells stained with the compound at a concentration of 1 × 10^–4 M in DMEM were examined using an LSM-710 laser scanning confocal microscope.\nThe suitability of substances for fluorescent imaging of cellular structures was studied on Vero cell culture (African green monkey kidney epithelium) and CHO (Chinese hamster ovary). The culture is supported in DMEM (Gibco, Uoltem, USA) with addition of 10% fetal bovine serum (Gibco, Uoltem, USA) and a mixture of gentamicin and streptomycin (Biolot, Moscow, Russia).\nThe cells were cultivated into specialized Petri dishes with a glass bottom for staining. Staining was carried out with substances at a concentration of 1 × 10^–4 M. For that, the solution of substances was preliminarily diluted with DMSO (Biolot, Moscow, Russia) to a concentration of 1 × 10^–3 M and then with DMEM to the required concentration. Incubation with the substance was carried out for half an hour in an incubator, in the dark at a temperature of 37 °C. […]\nThe stained cells with the substance were examined using an LSM-710 laser scanning confocal microscope (Carl Zeiss, Oberkochen, Germany). […] Fluorescence was excited by lasers with different wavelengths and registered in lambda mode. This mode gets to collect a full spectrum image by analyzing the intensity of fluorescence in different ranges. […] Taking images in this mode also makes it possible to obtain the fluorescence spectrum of the test substance in the cell. However, a confocal microscope is not a spectrofluorometer and the resulting spectra can have very poor quality, especially at low fluorescence intensity."}, "Sprague-Dawley rats": {"tested_on": "Sprague-Dawley rats", "experiment": "Carrageenan-induced paw edema model (anti-inflammatory activity)", "format": "in vivo", "conditions": "ip", "experimental": "Anti-inflammatory activity was studied in Sprague-Dawley rats (3 male and 3 female animals per group) by using the common carrageenan-induced paw edema model. The investigated compounds in 1% starch mucilage were intraperitoneally administered at the corresponding dose to a treated group of rodents 30 min before the injection of 0.1 mL of freshly prepared 1% carrageenan (λ-carrageenan, type IV; Sigma Aldrich, an affiliate of Merck KGaA, Darmstadt, Germany) solution in the right hind paw plantar surface. The negative control group was treated with 1% starch mucilage solution only. Diclofenac sodium (10 mg/kg in 1% starch mucilage solution) was used as a reference drug. Paw volumes were measured oncometrically with water plethysmometer (TSE Volume Meter, Bad Homburg, Germany) before carrageenan administration (“zero time”) and at 1st, 3rd, 5th and 24th h after its injection. An anti-inflammatory activity of the sample at a certain time point was calculated in two steps. First, the percentage of an edema increment (i.e., relative volume change for the inflamed paw vs. “zero time” value) both in the negative control group (Pc) and in the treated group (Ptr) were calculated for this time point for each animal. The difference between treated and control group was considered significant at p < 0.05. Then, for such cases, swelling inhibition was calculated according to the formula: 100% (Pc − Ptr)/Pc and considered as a measure of anti-inflammatory activity of the sample."}}, "note": "Marks after values point to notes of the source that are not given here."}
{"smiles": "O=C1NN=C(C(F)(F)F)/C1=N/Nc1ccccc1", "note": "[5a, (Z)-4-(2-Phenylhydrazinylidene)-5-(trifluoromethyl)-2,4-dihydro-3H-pyrazol-3-one]", "values": [{"measurement": "αKi (non-competitive inhibition constant), CES", "setting": "[1]", "result": "0.255 ± 0.013", "unit": "µM"}, {"measurement": "FRAP (TE, antioxidant activity in Trolox equivalents)", "setting": "[2]", "result": "0.09 ± 0.01"}]}
{"smiles": "Cc1ccc(N/N=C2\\C(=O)NN=C2C(F)(F)F)cc1", "note": "[5b, (4Z)-4-[2-(4-Methylphenyl)hydrazinylidene]-5-(trifluoromethyl)-2,4-dihydro-3H-pyrazol-3-one]", "values": [{"measurement": "FRAP (TE, antioxidant activity in Trolox equivalents)", "setting": "[2]", "result": "0.05 ± 0.02"}, {"measurement": "MIC", "setting": "[3]", "result": 100, "unit": "µg/mL"}]}
{"smiles": "O=C1NN=C(C(F)(F)F)/C1=N/Nc1ccc(Br)cc1", "note": "[5c, (4Z)-4-[2-(4-Bromophenyl)hydrazinylidene]-5-(trifluoromethyl)-2,4-dihydro-3H-pyrazol-3-one]", "values": [{"measurement": "MIC for fungi strains inhibition, M. canis", "setting": "[3]", "result": 25, "unit": "µg/mL"}, {"measurement": "MIC", "setting": "[3]", "result": 25, "unit": "µg/mL"}]}
{"smiles": "Cc1ccc(N/N=C2\\C(=O)N(C)N=C2C(F)(F)F)cc1", "note": "[5d, (4Z)-2-Methyl-4-[2-(4-methylphenyl)hydrazinylidene]-5-(trifluoromethyl)-2,4-dihydro-3H-pyrazol-3-one]", "values": [{"measurement": "αKi (non-competitive inhibition constant), CES", "setting": "[1]", "result": "3.98 ± 0.31", "unit": "µM"}, {"measurement": "MIC", "setting": "[3]", "result": 200, "unit": "µg/mL"}]}
{"smiles": "Cc1ccc(N/N=C2\\C(=O)N(c3ccccc3)N=C2C(F)(F)F)cc1", "note": "[5f, (4Z)-4-[2-(4-Methylphenyl)hydrazinylidene]-2-phenyl-5-(trifluoromethyl)-2,4-dihydro-3H-pyrazol-3-one]", "values": [{"measurement": "αKi (non-competitive inhibition constant), CES", "setting": "[1]", "result": "0.735 ± 0.007", "unit": "µM"}, {"measurement": "acute phototoxicity during cell visualization", "setting": "Vero cells", "result": "No acute phototoxicity"}, {"measurement": "Inhibition of Paw Edema Development Comparing to Control, after 5 h", "setting": "Sprague-Dawley rats; dose 15 mg/kg, n.a. = inactive", "result": "30.9 * %"}, {"measurement": "MIC", "setting": "[3]", "result": 200, "unit": "µg/mL"}]}
{"smiles": "CS(=O)(=O)c1ccc(N/N=C2\\C(=O)N(c3ccccc3)N=C2C(F)(F)F)cc1", "note": "[5m, (4Z)-4-(2-[4-(Methylsulfonyl)phenyl]hydrazinylidene)-2-phenyl-5-(trifluoromethyl)-2,4-dihydro-3H-pyrazol-3-one]", "values": [{"measurement": "Inhibition of Paw Edema Development Comparing to Control, after 1 h", "setting": "Sprague-Dawley rats; dose 25 mg/kg", "result": "49.0 ** %"}, {"measurement": "Inhibition of Paw Edema Development Comparing to Control, after 3 h", "setting": "Sprague-Dawley rats; dose 25 mg/kg", "result": "44.3 * %"}, {"measurement": "Inhibition of Paw Edema Development Comparing to Control, after 5 h", "setting": "Sprague-Dawley rats; dose 25 mg/kg", "result": "35.3 * %"}, {"measurement": "MIC", "setting": "[3]", "result": "> 200", "unit": "µg/mL"}]}
{"smiles": "Cc1ccc(N/N=C2\\C(=O)N(c3ccc(S(N)(=O)=O)cc3)N=C2C(F)(F)F)cc1", "note": "[5p, (4Z)-2-[4-(Aminosulfonyl)phenyl]-4-[2-(4-methylphenyl)hydrazinylidene]-5-(trifluoromethyl)-2,4-dihydro-3H-pyrazol-3-one]", "values": [{"measurement": "MIC", "setting": "[3]", "result": "> 200", "unit": "µg/mL"}]}
{"smiles": "Cc1ccc(N/N=C2\\C(=O)NN=C2C(F)(F)C(F)(F)F)cc1", "note": "[6a, (4Z)-4-[2-(4-Methylphenyl)hydrazinylidene]-5-(pentafluoroethyl)-2,4-dihydro-3H-pyrazol-3-one]", "values": [{"measurement": "FRAP (TE, antioxidant activity in Trolox equivalents)", "setting": "[2]", "result": "0.15 ± 0.02"}, {"measurement": "acute phototoxicity during cell visualization", "setting": "Vero cells", "result": "No acute phototoxicity"}]}
{"smiles": "Cc1ccc(N/N=C2\\C(=O)NN=C2C(F)(F)C(F)(F)C(F)(F)F)cc1", "note": "[7a, (4Z)-5-(Heptafluoropropyl)-4-[2-(4-methylphenyl)hydrazinylidene]-2,4-dihydro-3H-pyrazol-3-one]", "values": [{"measurement": "MIC", "setting": "[3]", "result": "> 200", "unit": "µg/mL"}]}
{"smiles": "CC1=NNC(=O)/C1=N\\Nc1ccc(C)cc1", "note": "[9a, (4Z)-5-Methyl-4-[2-(4-methylphenyl)hydrazinylidene]-2,4-dihydro-3H-pyrazol-3-one]", "values": [{"measurement": "FRAP (TE, antioxidant activity in Trolox equivalents)", "setting": "[2]", "result": "0.51 ± 0.01"}, {"measurement": "acute phototoxicity during cell visualization", "setting": "Vero cells", "result": "No acute phototoxicity"}]}
{"smiles": "CC1=NN(c2ccccc2)C(=O)/C1=N\\Nc1ccc(C)cc1", "note": "[9b, (4Z)-5-Methyl-4-[2-(4-methylphenyl)hydrazinylidene]-2-phenyl-2,4-dihydro-3H-pyrazol-3-one]", "values": [{"measurement": "FRAP (TE, antioxidant activity in Trolox equivalents)", "setting": "[2]", "result": "0.11 ± 0.01"}, {"measurement": "MIC", "setting": "[3]", "result": "> 200", "unit": "µg/mL"}]}
